Legend:
[1] = target: T1, HIV-associated reverse transcriptase (HIV-RT) (Human immunodeficiency virus type 1 group M subtype B, UniProt P04585); test: Inhibition of the HIV-associated reverse transcriptase (HIV-RT); format: biochemical
T1 construct: HIV-associated reverse transcriptase (HIV-RT)
Method: 1. Selective inhibition of the HIV-associated reverse transcriptase (HIV-RT) by 3'-fluoro-4-thiothymidine-triphosphate
(§1) For these investigations, the effect of the compound on the activity of HIV-RT as well as on the cellular DNA polymerase was determined using the methods described by Matthes et al., in Biochem. Biophys. Res. Commun. 148, 78 (1987). Different concentrations of 3'-fluoro-4-thiothymidine triphosphate were added to the enzyme preparations. The concentrations of 3'-fluoro-4-thiothymidine triphosphate, which inhibit the polymerases investigated to the extent of 50% (ID50), were determined from the inhibition curves obtained. […] Accordingly 3'-fluoro-4-thiothymidine triphosphate inhibits the HIV-RT 700 times more effectively than the cellular DNA polymerase and thus has a largely selective effect on the HIV replication.

DNA polymerase = target: T2, DNA polymerase (Homo sapiens, UniProt P09884); test: Inhibition of cellular DNA polymerase (enzyme mainly responsible for cellular replication); format: biochemical; settings: read-out: ID50 (concentration inhibiting the polymerase to the extent of 50%), DNA polymerase
T2 sequence (P09884 1-1462): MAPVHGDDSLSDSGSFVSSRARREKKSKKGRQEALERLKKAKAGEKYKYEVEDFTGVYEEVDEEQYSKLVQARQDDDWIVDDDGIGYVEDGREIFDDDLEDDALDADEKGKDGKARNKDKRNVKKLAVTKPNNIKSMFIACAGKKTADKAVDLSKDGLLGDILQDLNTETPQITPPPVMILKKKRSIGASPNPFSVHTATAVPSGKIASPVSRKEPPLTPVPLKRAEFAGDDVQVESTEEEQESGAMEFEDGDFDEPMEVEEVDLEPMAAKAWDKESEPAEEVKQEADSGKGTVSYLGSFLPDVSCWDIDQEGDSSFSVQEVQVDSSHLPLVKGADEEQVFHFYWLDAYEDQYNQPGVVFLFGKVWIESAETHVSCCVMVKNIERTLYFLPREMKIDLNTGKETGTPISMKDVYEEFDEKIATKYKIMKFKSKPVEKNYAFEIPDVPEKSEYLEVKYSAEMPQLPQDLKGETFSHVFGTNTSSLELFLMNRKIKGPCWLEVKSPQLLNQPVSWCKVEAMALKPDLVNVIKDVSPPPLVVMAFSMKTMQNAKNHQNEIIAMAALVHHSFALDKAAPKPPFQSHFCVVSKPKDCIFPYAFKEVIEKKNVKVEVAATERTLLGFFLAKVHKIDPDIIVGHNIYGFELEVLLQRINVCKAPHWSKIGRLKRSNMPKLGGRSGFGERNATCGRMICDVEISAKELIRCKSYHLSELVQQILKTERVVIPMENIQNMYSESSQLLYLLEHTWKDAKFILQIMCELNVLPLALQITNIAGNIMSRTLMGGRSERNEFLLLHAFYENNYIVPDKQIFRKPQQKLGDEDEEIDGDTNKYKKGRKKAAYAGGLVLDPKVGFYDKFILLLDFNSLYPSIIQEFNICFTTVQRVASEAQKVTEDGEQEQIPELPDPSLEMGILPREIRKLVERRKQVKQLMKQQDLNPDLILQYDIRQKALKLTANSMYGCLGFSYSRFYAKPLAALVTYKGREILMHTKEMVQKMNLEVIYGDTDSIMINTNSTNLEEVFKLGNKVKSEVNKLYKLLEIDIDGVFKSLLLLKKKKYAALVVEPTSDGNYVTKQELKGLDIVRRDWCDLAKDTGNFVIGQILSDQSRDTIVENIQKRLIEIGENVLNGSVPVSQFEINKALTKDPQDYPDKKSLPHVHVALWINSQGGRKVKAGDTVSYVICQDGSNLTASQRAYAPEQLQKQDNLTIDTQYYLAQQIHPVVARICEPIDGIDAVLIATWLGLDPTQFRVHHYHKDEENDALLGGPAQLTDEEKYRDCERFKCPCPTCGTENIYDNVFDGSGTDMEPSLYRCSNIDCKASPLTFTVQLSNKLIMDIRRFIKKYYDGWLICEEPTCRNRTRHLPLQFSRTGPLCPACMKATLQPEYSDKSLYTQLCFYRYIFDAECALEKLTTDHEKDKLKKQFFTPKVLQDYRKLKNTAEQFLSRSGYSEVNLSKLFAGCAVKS
Method: as §1

DNA polymerase β = DNA polymerase β (Homo sapiens, UniProt P06746); test: Inhibition of DNA polymerase β (cellular DNA repair enzyme); format: biochemical; settings: read-out: ID50 (concentration inhibiting the polymerase to the extent of 50%), DNA polymerase β
Method: as §1

HIV-1 (HTLV IIIa) = test: Inhibition of the cytopathic effect of HIV on T lymphocyte cells (protection of MT-4 cells); format: cell-based; settings: for EC50: Human immunodeficiency virus 1, MT4, 50% protection of MT-4 cells against HIV-1 (HTLV IIIa), read-out: 50% antiviral dose (ED50)
From the text: 2. Inhibition of the cytopathic effect of HIV on T lymphocyte cells
(§2) Under in vitro conditions, an infection of T lymphocytes with HIV leads to the death of the cells within a few days. The MT-4 cells, described by Harada et al. in Science 229, 563 (1985), were used in a test system (Matthes et al., Biochem. Biophys., Res. Commun. 153, 825 (1988)), to test to what extent the inventive nucleosides can nullify the cytocidal effect of HIV-1 (HTLV IIIa) on this T cell line. In addition, the antiproliferative effectiveness of the nucleosides investigated is listed and, moreover, as the concentration which decreases the proliferation of the MT-4 cells by 50% (CD50).
(§3) Comparison of the antiviral and antiproliferative effectiveness
(§4) of nucleoside analogies using MT-4 cells

[2] = Antiproliferative effect on MT-4 cells; format: cell-based, human; settings: human, mt-4 cells
From the text: as §2, with “(CD50). […]” for “(CD50).”
as §3, §4

AIDS patients = settings: cited from earlier work
MT-4 cells = test: Antiproliferative effect on MT-4 cells; format: cell-based, human
From the text: as §2, with “(CD50). […]” for “(CD50).”
as §3, §4

[3] = In vitro cytotoxicity to cell cultures, REH; format: cell-based; settings: human, reh cells; read-out: CD50, antiproliferative effect
From the text: (§5) 3. In vitro cytotoxicity of 3'-fluoro-4-thiothymidine to cell cultures
(§6) A series of further human cell lines was included in the investigation of the antiproliferative effect of 3'-fluoro-4-thiothymidine and the following CD50 were found: […]

[4] = In vitro cytotoxicity to cell cultures, HELFI; format: cell-based; settings: human, helfi lung fibroblasts; read-out: CD50, antiproliferative effect
From the text: as §5, §6

[5] = In vitro cytotoxicity to cell cultures, H-8; format: cell-based; settings: human, h-8 cells; read-out: CD50, antiproliferative effect
From the text: as §5, §6

[6] = In vitro cytotoxicity to cell cultures, Molt-4; format: cell-based; settings: human, molt-4 cells; read-out: CD50, antiproliferative effect
From the text: as §5, §6

[7] = test system: colony-forming cells of the bone marrow of the mouse (GM-CFU); test: Growth inhibition of colony-forming cells of the bone marrow (GM-CFU); format: cell-based; settings: concentrations up to 100 micromoles/L
[8] = AIDS patients with Pneumocystis carinii pneumonia

SMILES | EC50 (HIV-1 (HTLV IIIa)) [µM] | CC50 [2] [µM] | further results
Cc1cn([C@H]2C[C@H](F)[C@@H](COP(=O)(O)OP(=O)(O)OP(=O)(O)O)O2)c(=O)[nH]c1=S [3'-fluoro-4-thiothymidine triphosphate, 1-(2,3-Dideoxy-3-fluoro-β-D-ribofuranosyl)-4-thiothymine-5'-triphosphate] |  |  | inhibits the HIV-RT times more effectively than the cellular DNA polymerase ([1]; HIV-RT versus cellular DNA polymerase): 700 times; IC50 ([1]; HIV-RT, read-out: ID50 (concentration inhibiting the polymerase to the extent of 50%), HIV-RT): 0.3 µM; IC50 (DNA polymerase): 140 µM; IC50 (DNA polymerase β): 7 µM
Cc1cn([C@H]2C[C@H](F)[C@@H](CO)O2)c(=O)nc1NO [1-(2,3-Dideoxy-3-fluoro-β-D-ribofuranosyl)-4-hydroxylamino-5-methyl-(1H)-pyrimidine-2-one] | 100 | 300 | 
O=c1ncccn1[C@H]1C[C@H](F)[C@@H](CO)O1 [1-(2,3-dideoxy-3-fluoro-β-D-ribofuranosyl)-pyrimidine-2-one] | 30 | > 800 | 
O=c1nc(NO)ccn1[C@H]1C[C@H](F)[C@@H](CO)O1 [1-(2,3-Dideoxy-3-fluoro-β-D-glycero-ribofuranosyl)-4-hydroxylamino-(1H)-pyrimidine-2-one] | 100 | 100 | 
CSc1ccn([C@H]2C[C@H](F)[C@@H](CO)O2)c(=O)n1 [1-(2,3-dideoxy-3-fluoro-β-D-ribofuranosyl)-4-methylmercapto-pyrimidine-2-one] | 12 | 50 | 
Cc1cnc(=O)n([C@H]2C[C@H](F)[C@@H](CO)O2)c1 [1-(2,3-dideoxy-3-fluoro-β-D-ribofuranosyl)-5-methyl-pyrimidine-2-one] | 12 | > 400 | 
Cc1cn([C@H]2C=C[C@@H](CO)O2)c(=O)[nH]c1=S [1-(2,3-Dideoxy-β-D-glycero-pent-2-enofuranosyl)-4-thiothymine] | 0.85 | 350 | 
Cc1cn([C@H]2C[C@H](N=[N+]=[N-])[C@@H](CO)O2)c(=O)[nH]c1=O [3'-azidothymidine] |  |  | clinical and neurological findings (in words) (AIDS patients; [8]): improvements in clinical and neurological findings; immunological functions (in words) (AIDS patients; [8]): occasional restoration of certain immunological functions; life prolonging effects (in words) (AIDS patients; [8]): unambiguous life prolonging effects; patients in whom toxic side effects on the bone marrow make blood transfusions necessary (AIDS patients; AIDS patients): about 50%
O=c1[nH]c(=S)ccn1[C@H]1C[C@H](F)[C@@H](CO)O1 [1-(2,3-Dideoxy-3-fluoro-β-D-ribofuranosyl)-4-thiouracil] | 15 | 150 | 
Cc1ccc(C(=O)Nc2ccc(S(=O)(=O)O)c3cc(S(=O)(=O)O)cc(S(=O)(=O)O)c23)cc1NC(=O)c1cccc(NC(=O)Nc2cccc(C(=O)Nc3cc(C(=O)Nc4ccc(S(=O)(=O)O)c5cc(S(=O)(=O)O)cc(S(=O)(=O)O)c45)ccc3C)c2)c1 [Suranim] |  |  | tolerance and effectiveness (in words) (AIDS patients; clinically tested): have not yet attained the necessary tolerance and the hoped-for effectiveness
Cc1cn([C@H]2C[C@H](F)[C@@H](CO)O2)c(=O)[nH]c1=S [1-(2,3-Dideoxy-3-fluoro-β-D-ribofuranosyl)-4-thiothymine] | 1.8 | 480 | inhibition of HIV replication (summary in words) (HIV-1 (HTLV IIIa)): effective inhibitor of HIV replication; effect on cell proliferation (in words) (MT-4 cells; MT-4 cells): hardly any effect on the cell proliferation; cytotoxicity (summary in words) (MT-4 cells; summary of the cell tests): very slight cytotoxicity; CC50 [3]: 500 µM; CC50 [4]: 700 µM; CC50 [5]: ≥ 800 µM; CC50 [6]: ≥ 1000 µM; growth-inhibiting effect on colony-forming cells of the bone marrow [7]: no growth-inhibiting effect whatsoever
CSc1nc(=O)n([C@H]2C[C@H](F)[C@@H](CO)O2)cc1C [1-(2,3-Dideoxy-3-fluoro-β-D-ribofuranosyl)-4-methylmercapto-5-methyl-(1H)-pyrimidine-2-one] | > 1000 | > 1000 | 

Source: patent US5496935A, “2',3'-dideoxynucleoside pyrimidine compounds and carbocyclic analogs” (Max-Delbru/ ck-Centrum, priority 1994, dated 1996)
